# Source: patent publication US7273863B1, “Benzophenones as inhibitors of reverse transcriptase” (SmithKline Beecham Corporation, priority 1999, dated 2007)
# Assays:
# Assay type in all cases: cell-based
# NEV-R = experiment: MT4 cell assay, antiviral HIV activity (propidium iodide); settings: Human immunodeficiency virus 1, MT4, read-out: IC50 (nM) Range
# [1] = tested on: isogenic HIV-1 RT mutant virus G190A; experiment: HeLa cell assay (HIV-LTR β-galactosidase reporter); settings: Human immunodeficiency virus 1, HeLa, read-out: IC50 (nM) Range
# Method: (§1) The HeLa cell assay was performed according to a modification of Kimpton J. and Emerman M., Detection of replication-competent and pseudotyped human immunodeficiency virus with a sensitive cell line on the basis of activation of an integrated β-galactosidase gene, J. Virol. 66:2232-2239 (1992), in which HIV-1 infection is detected by the activation of an HIV-LTR driven β-galactosidase reporter that is integrated into the genome of a CD4^+ HeLa cell line. Quantitation of β-galactosidase is achieved by measuring the activation of a chemiluminescent substrate (Tropix). The concentration of each compound required to inhibit 50% (IC50) of the HIV-1 induced β-galactosidase signal, relative to untreated controls, was determined for each isogenic, recombinant virus.
# (§2) HeLa-CD4-LTR-β-gal cells were obtained from the NIH AIDS Research and Reference Reagent Program. Cells were propagated in DMEM containing 10% fetal bovine serum, 0.2 mg/ml geneticin and 0.1 mg/ml hygromycin B. Cells were routinely split by trypsinization when confluency reached 80% (approximately every 2 to 3 days).
# (§3) DNA encoding the HIV-1 reverse transcriptase was subcloned from a M13 phage into a general shuttle vector, pBCSK+, as a ˜1.65 kbp EcoRI/HindIII ended DNA fragment. The HIV DNA insert of the resulting plasmid, pRT2, was completely sequenced on both strands prior to use in site directed mutagenesis experiments. Specific amino acid replacements were made using Stratagene Quick Change reagents and mutagenic oligonucleotides from Oligos. Following mutagenesis, the entire mutant RT coding sequence was verified by sequencing both DNA strands.
# (§4) Mutant HIV-1 strains were isolated by a modified Recombinant Virus Assay (Kellam P. and Larder B., Recombinant virus assay: a rapid, phenotypic assay for assessment of drug susceptibility of human immunodeficiency virus type 1 isolates, Antimicrobial Agents and Chemotherapy, 38:23-30, 1994). 1×10^7 Jurkat T-cells (maintained in RPMI containing 10% fetal bovine serum, split 1:5 every 5 to 6 days) were co-transfected with EcoRI/HindIII digested mutant RT plasmid and Bst EII-digested HIV-1HXB2ΔRT DNA in the presence of DMRIE-C transfection reagent (Gibco) according to supplier's recommended protocol. Each mutant RT coding sequence was crossed into the RT-deleted HIV-1 viral DNA backbone by in vivo homologous recombination. Transfected cell cultures were expanded and monitored until syncitia formation and CPE were extensive. Virus was harvested by clear spin of the culture supernatants and frozen at −80 C as primary stock. Recombinant progeny virus was sequenced in the RT region to confirm the mutant genotype. Virus stocks were further expanded by infection of Jurkat cells, harvested and stored as frozen aliquots. Stocks were titered in HeLa MAGI cells for assay.
# (§5) The HIV-1HXB2 mutants were titered in the HeLa MAGI assay system to determine the relative light units (RLU) per ml, a measure of infectivity relevant for this assay system. Virus stocks were diluted in a 2-fold series into DMEM containing 10% fetal bovine serum plus 20 ug/ml DEAE-dextran and assayed as described in the Experimental Protocol section, below.
# (§6) 96-well microtiter plate(s) (Costar #3598) were seeded with 3×10^3 HeLa-CD4-LTR-β-gal in 100 μl DMEM containing 10% fetal bovine serum. Plates were placed in a 37° C., 5% CO2 humidified incubator overnight. The following day, mutant virus stocks were thawed in a room temperature water bath and diluted into DMEM containing 10% fetal bovine serum and 20 μg/ml DEAE-dextran to achieve an input of 1500 to 2000 RLU/ml. All media was removed with an 8 channel manifold aspirator and 35 μl (50 to 70 total RLUs) of diluted virus was added to each well for virus adsorption. Plates were placed in a 37° C., 5% CO2 humidified incubator for 1.5 to 2 hours.
# (§7) Compound titration plates were prepared at 1.35× final concentration during the virus adsorption period. […]
# [2] = tested on: isogenic HIV-1 RT mutant virus K103N/G190A; experiment: HeLa cell assay (HIV-LTR β-galactosidase reporter); settings: Human immunodeficiency virus 1, HeLa, read-out: IC50 (nM) Range
# Method: as §1, §2, §3, §4, §5, §6, §7
# [3] = tested on: isogenic HIV-1 RT mutant virus K103N/P225H; experiment: HeLa cell assay (HIV-LTR β-galactosidase reporter); settings: Human immunodeficiency virus 1, HeLa, read-out: IC50 (nM) Range
# Method: as §1, §2, §3, §4, §5, §6, §7
# [4] = tested on: isogenic HIV-1 RT mutant virus K103N/V108I; experiment: HeLa cell assay (HIV-LTR β-galactosidase reporter); settings: Human immunodeficiency virus 1, HeLa, read-out: IC50 (nM) Range
# Method: as §1, §2, §3, §4, §5, §6, §7
# [5] = tested on: isogenic HIV-1 RT mutant virus K103N/Y181C; experiment: HeLa cell assay (HIV-LTR β-galactosidase reporter); settings: Human immunodeficiency virus 1, HeLa, read-out: IC50 (nM) Range
# Method: as §1, §2, §3, §4, §5, §6, §7
# [6] = tested on: isogenic HIV-1 RT mutant virus K103N; experiment: HeLa cell assay (HIV-LTR β-galactosidase reporter); settings: Human immunodeficiency virus 1, HeLa, read-out: IC50 (nM) Range
# Method: as §1, §2, §3, §4, §5, §6, §7
# [7] = tested on: isogenic HIV-1 RT mutant virus L100I; experiment: HeLa cell assay (HIV-LTR β-galactosidase reporter); settings: Human immunodeficiency virus 1, HeLa, read-out: IC50 (nM) Range
# Method: as §1, §2, §3, §4, §5, §6, §7
# [8] = tested on: isogenic HIV-1 RT mutant virus P225H; experiment: HeLa cell assay (HIV-LTR β-galactosidase reporter); settings: Human immunodeficiency virus 1, HeLa, read-out: IC50 (nM) Range
# Method: as §1, §2, §3, §4, §5, §6, §7
# [9] = tested on: isogenic HIV-1 RT mutant virus P236L; experiment: HeLa cell assay (HIV-LTR β-galactosidase reporter); settings: Human immunodeficiency virus 1, HeLa, read-out: IC50 (nM) Range
# Method: as §1, §2, §3, §4, §5, §6, §7
# [10] = tested on: isogenic HIV-1 RT mutant virus V106A/Y181C; experiment: HeLa cell assay (HIV-LTR β-galactosidase reporter); settings: Human immunodeficiency virus 1, HeLa, read-out: IC50 (nM) Range
# Method: as §1, §2, §3, §4, §5, §6, §7
# [11] = tested on: isogenic HIV-1 RT mutant virus V106I/Y181C; experiment: HeLa cell assay (HIV-LTR β-galactosidase reporter); settings: Human immunodeficiency virus 1, HeLa, read-out: IC50 (nM) Range
# Method: as §1, §2, §3, §4, §5, §6, §7
# [12] = tested on: isogenic HIV-1 RT mutant virus V106I; experiment: HeLa cell assay (HIV-LTR β-galactosidase reporter); settings: Human immunodeficiency virus 1, HeLa, read-out: IC50 (nM) Range
# Method: as §1, §2, §3, §4, §5, §6, §7
# [13] = tested on: isogenic HIV-1 RT mutant virus V108I/Y181C; experiment: HeLa cell assay (HIV-LTR β-galactosidase reporter); settings: Human immunodeficiency virus 1, HeLa, read-out: IC50 (nM) Range
# Method: as §1, §2, §3, §4, §5, §6, §7
# [14] = tested on: isogenic HIV-1 RT mutant virus Y181C; experiment: HeLa cell assay (HIV-LTR β-galactosidase reporter); settings: Human immunodeficiency virus 1, HeLa, read-out: IC50 (nM) Range
# Method: as §1, §2, §3, §4, §5, §6, §7
# [15] = tested on: isogenic HIV-1 RT mutant virus V108I; experiment: HeLa cell assay (HIV-LTR β-galactosidase reporter); settings: Human immunodeficiency virus 1, HeLa, read-out: IC50 (nM) Range
# Method: as §1, §2, §3, §4, §5, §6, §7
SMILES,IC50 (NEV-R),IC50 [1],IC50 [2],IC50 [3],IC50 [4],IC50 [5],IC50 [6],IC50 [7],IC50 [8],IC50 [9],IC50 [10],IC50 [11],IC50 [12],IC50 [13],IC50 [14],IC50 [15]
Cc1cc(C#N)cc(C(=O)c2cc(Cl)ccc2OCC(=O)Nc2ccc(S(N)(=O)=O)cc2C)c1 [Compound 564],< 10 nM,< 10 nM,< 10 nM,< 10 nM,< 10 nM,< 10 nM,< 10 nM,< 10 nM,< 10 nM,< 10 nM,< 10 nM,< 10 nM,< 10 nM,< 10 nM,< 10 nM,
Cc1cc(S(N)(=O)=O)ccc1NC(=O)COc1ccc(Cl)cc1C(=O)c1cccc(C#N)n1 [Compound 637],< 10 nM,< 10 nM,< 10 nM,< 10 nM,< 10 nM,< 10 nM,< 10 nM,< 10 nM,< 10 nM,< 10 nM,< 10 nM,< 10 nM,< 10 nM,< 10 nM,< 10 nM,
Cc1cc(S(N)(=O)=O)ccc1NC(=O)COc1ccc(Cl)cc1C(=O)c1cccc(C#N)c1 [Compound 448],< 10 nM,< 10 nM,11 to 100 nM,< 10 nM,< 10 nM,11 to 100 nM,< 10 nM,< 10 nM,< 10 nM,11 to 100 nM,11 to 100 nM,11 to 100 nM,< 10 nM,< 10 nM,< 10 nM,< 10 nM
Cc1cc2nc[nH]c2cc1NC(=O)COc1ccc(Cl)cc1C(=O)c1cc(F)cc(C(F)(F)F)c1 [Compound 239],< 10 nM,< 10 nM,11 to 100 nM,< 10 nM,< 10 nM,11 to 100 nM,< 10 nM,< 10 nM,< 10 nM,< 10 nM,101 to 1000 nM,< 10 nM,< 10 nM,< 10 nM,< 10 nM,< 10 nM
Cc1cc(C#N)cc(C(=O)c2cc(Cl)ccc2OCC(=O)Nc2ccc(OCCCN3CC=CC3)cc2C)c1 [Compound 593],< 10 nM,< 10 nM,< 10 nM,< 10 nM,< 10 nM,< 10 nM,< 10 nM,< 10 nM,< 10 nM,< 10 nM,< 10 nM,11 to 100 nM,< 10 nM,< 10 nM,< 10 nM,< 10 nM
Cc1cc(C)cc(C(=O)c2cc(Cl)ccc2OCC(=O)Nc2ccc(S(N)(=O)=O)cc2C)c1 [Compound 478],< 10 nM,< 10 nM,< 10 nM,< 10 nM,< 10 nM,< 10 nM,< 10 nM,< 10 nM,< 10 nM,< 10 nM,< 10 nM,< 10 nM,< 10 nM,< 10 nM,< 10 nM,< 10 nM
Cc1cc(C#N)cc(C(=O)c2cc(Cl)ccc2OCC(=O)Nc2cnc(S(N)(=O)=O)cc2C)c1 [Compound 587],< 10 nM,< 10 nM,< 10 nM,< 10 nM,< 10 nM,< 10 nM,< 10 nM,< 10 nM,< 10 nM,< 10 nM,< 10 nM,11 to 100 nM,< 10 nM,< 10 nM,< 10 nM,< 10 nM
CCc1cc(C#N)cc(C(=O)c2cc(Cl)ccc2OCC(=O)Nc2ccc(S(N)(=O)=O)cc2C)c1 [Compound 498],< 10 nM,< 10 nM,< 10 nM,< 10 nM,< 10 nM,< 10 nM,< 10 nM,< 10 nM,< 10 nM,< 10 nM,< 10 nM,11 to 100 nM,< 10 nM,< 10 nM,< 10 nM,< 10 nM
Cc1cc(OCCCS(N)(=O)=O)ccc1NC(=O)COc1ccc(Cl)cc1C(=O)c1cc(F)cc(C(F)(F)F)c1 [Compound 257],< 10 nM,< 10 nM,11 to 100 nM,< 10 nM,< 10 nM,< 10 nM,< 10 nM,< 10 nM,< 10 nM,< 10 nM,11 to 100 nM,11 to 100 nM,< 10 nM,< 10 nM,< 10 nM,< 10 nM
Cc1cc2cn[nH]c2cc1NC(=O)COc1ccc(Cl)cc1C(=O)c1cccc(C#N)c1 [Compound 453],< 10 nM,< 10 nM,11 to 100 nM,< 10 nM,< 10 nM,< 10 nM,< 10 nM,< 10 nM,< 10 nM,11 to 100 nM,11 to 100 nM,11 to 100 nM,< 10 nM,< 10 nM,< 10 nM,101 to 1000 nM
Cc1cc(S(N)(=O)=O)ccc1NC(=O)COc1ccc(Cl)cc1C(=O)c1cc(F)cc(C(F)(F)F)c1 [Compound 78],< 10 nM,< 10 nM,11 to 100 nM,< 10 nM,< 10 nM,< 10 nM,< 10 nM,< 10 nM,< 10 nM,< 10 nM,11 to 100 nM,,,11 to 100 nM,< 10 nM,< 10 nM
Cc1cc(S(N)(=O)=O)ccc1NC(=O)COc1ccc(Cl)cc1C(=O)c1cc(F)cc(F)c1 [Compound 62],< 10 nM,< 10 nM,11 to 100 nM,< 10 nM,< 10 nM,11 to 100 nM,< 10 nM,< 10 nM,< 10 nM,11 to 100 nM,11 to 100 nM,11 to 100 nM,< 10 nM,< 10 nM,< 10 nM,< 10 nM
